Assay results: patent publication US12527329B2, “Compositions and methods relating to insecticides” (priority 2019, dated 2026)
Where two headings read alike, the source gives them in different places.

Key:
Aedes aegypti mosquitoes = type: in vivo
Description: This plant essential oil has been screened in combination with natural pyrethrins to assess the ability of this oil and these compositions to increase mortality and knockdown at 24-hr and 1-hr, respectively. […] As described herein, all compounds were dissolved and applied topically in ethanol or acetone.
An example of such synergism can be seen in FIG. 4. FIG. 4 is a graph showing synergism of insecticide (natural pyrethrins, NPs), piperonyl butoxide (PBO), and the combination thereof on mortality (24 hour) of Aedes aegypti mosquitoes. Mosquitoes were treated topically with 0.2 μL of different concentrations of insecticide+1% or 5% (w/v) piperonyl butoxide (PBO) in acetone. Mortality was recorded 24 hr after treatment.
Another example of such synergism is shown in FIG. 5, which is a graph showing antagonism of (natural pyrethrins, NPs), PBO, and the combination on knockdown (1 hour) of Aedes aegypti mosquitoes. Mosquitoes were treated with 0.2 μL different concentrations of insecticide+1% or 5% (w/v) PBO oil in acetone. Mortality was recorded 24 hr after exposure. FIG. 6 is an annotated version of FIG. 5 with arrows denoting statistically significant reduction in knockdown effect.
FIG. 7 is a graph showing synergism of (natural pyrethrins, NPs), fir needle oil, and the combination thereof on knockdown (1 hour) and mortality (24 hour) of Aedes aegypti mosquitoes. Mosquitoes were treated with 0.2 μL of different concentrations of insecticide+1% or 5% (w/v) fir needle oil in acetone. Mortality was recorded 24 hr after exposure.
(§1) Aedes aegypti mosquitoes (susceptible Orlando strain and pyrethroid resistant Puerto Rico strain) were reared using standard protocols and provided by the United States Department of Agriculture—Center of Medical, Agricultural, and Veterinary Entomology (Gainesville, FL). Adult mosquitoes were anesthetized on ice, and the females treated with 0.2 μL of ethanolic solution using a repeating micro-applicator (Hamilton Co., Reno, NV). Ten females were used per concentration and taken from at least three different emerged cohorts. Knockdown (defined as inability to fly or orient in the upright direction) was recorded at 1 hr or other time points post application (depending on the experiment), whereas mortality (defined as no movement—ataxia) was recorded at 24 hr. […] Synergism studies were performed using the maximal sublethal dose of the fir needle oil in combination with varying concentrations of insecticide to calculate the LD50 value of the insecticide in combination with the natural synergist. SAS 9.4 software was used to calculate the LD50 values using a PROC PROBIT model with Abbott's correction to account for any control mortality. Synergist ratios were calculated as: KD50 or LD50 of compound alone÷KD50 or LD50 of compound+Fir needle oil.

[1] = system: pyrethroid-susceptible strain of Aedes aegypti (Orlando); type: in vivo; conditions: topical; for KD50: 1-hr; for LD50: 24-hr
Description: as §1

[2] = system: pyrethroid-resistant Aedes aegypti strain (Puerto Rico); assay: Topical application on the pyrethroid-resistant Puerto Rico strain: 24-hr LD50 and 1-hr KD50; type: in vivo; design: unit not given beside the values; conditions: alone or with FNO 5%
Description: as §1

[3] = system: ethoxycoumarin de-ethylase (cytochrome P450 mono-oxygenase); assay: Ethoxycoumarin de-ethylase activity assay on homogenates of topically treated mosquitoes; type: biochemical, Aedes aegypti; conditions: 0.2 μL of 5% (w/v) topically, 4 hr before homogenization; ANOVA with Tukey's posttest, P<0.05 (FIG. 9)
Description: Ethoxycoumarin de-ethylase activity was measured according the methods of Anderson and Zhu (2004) with minor modifications. In short, mosquitoes were treated with 0.2 μL of fir needle oil or delta-carene 5% w/v solution in ethanol and incubated for 4 hr prior to sacrificing treated insects. Approximately 100 insects were homogenized in 0.1 PBS solution, and homogenates centrifuged at 10,000×g for 20 minutes at 4° C. The resulting supernatant containing microsomes was then used as the enzyme preparation for the remainder of the assay. In each well, 20 μL of enzyme preparation was added to a final volume of 100 μL 0.1 PBS containing 250 μM reduced β-NADPH and 2 mM ethoxycoumarin. After adding the enzyme solution to the wells, plates were incubated at room temperature for 3 hr. After 3 hr incubation, 10 μL of 3.2 mM of oxidized glutathione was added to each well and 1 U of yeast glutathione reductase was added to each well. […] Fluorescence values were then read at 390/465 nm excitation/[…].

[4] = 1-hr knockdown, topical, insecticide with or without 1% fir needle oil, ng dose per mg insect body weight

Row | SMILES | KD50 ([1]; alone or with FNO 5%) [ng/mg] | LD50 ([1]; alone or with FNO 5%) [ng/mg] | further results
1 | CC1(C)C(C=C(Cl)Cl)C1C(=O)OCc1cccc(Oc2ccccc2)c1 (racemic) [Permethrin, 3-phenoxybenzyl (1RS)-cis,trans-3-(2,2-dichlorovinyl)-2,2-dimethylcyclopropanecarboxylate] | 0.06 | 0.09 | KD50 (Aedes aegypti mosquitoes; in vivo): 0.06 ng/mg; LD50 (Aedes aegypti mosquitoes; in vivo): 0.09 ng/mg
2 | CNC(=N[N+](=O)[O-])NCc1cnc(Cl)s1 [Clothianidin, 1-(2-Chloro-1,3-thiazol-5-ylmethyl)-3-methyl-2-nitroguanidine] | 22 | 4.5 | KD50 (Aedes aegypti mosquitoes; [4]): 22 ng/mg; LD50 (Aedes aegypti mosquitoes; 24-hr lethal dose, topical, insecticide with or without 1% fir needle oil, ng dose per mg insect body weight): 4.5 ng/mg; KD50 ([1]; clothianidin alone or with 5% w/v FNO, delta-3-carene or bornyl acetate (Table 3)): 22; KD50 [2]: 9.15
3 | CC1(C)[C@H](C(=O)O[C@H](C#N)c2cccc(Oc3ccccc3)c2)[C@@H]1C=C(Br)Br [Deltamethrin, (S)-α-cyano-3-phenoxybenzyl (1R)-cis-3-(2,2-dibromovinyl)-2,2-dimethylcyclopropanecarboxylate] |  |  | KD50 (Aedes aegypti mosquitoes; [4]): 0.003 ng/mg
4 | N#Cc1nn(-c2c(Cl)cc(C(F)(F)F)cc2Cl)c(N)c1[S+]([O-])C(F)(F)F (stereo not shown) [Fipronil] | 10.7 | 0.1 | 
5 | O=[N+]([O-])N=C1NCCN1Cc1ccc(Cl)nc1 [Imidacloprid, 1-(6-chloro-3-pyridylmethyl)-N-nitroimidazolidin-2-ylideneamine] | 3.7 | 1.1 | KD50 [2]: 10.7
6 | CN1COCN(Cc2cnc(Cl)s2)C1=N[N+](=O)[O-] [Thiamethoxam, 3-((2-chloro-5-thiazolyl)methyl)-5-methyl-4-nitroiminotetrahydro-1,3,5-oxadiazine] | 17.2 | 3.4 | 
7 | CC1=CCC2C(C1)C2(C)C (stereo not shown) [delta-carene, delta-3-carene] |  |  | ethoxycoumarin de-ethylase (cytochrome P450 mono-oxygenase) activity versus vehicle-treated mosquitoes [3]: not increasing P450 activity
